Assay results from US5744485A, “Carbamates and ureas as modifiers of multi-drug resistance” (Vertex Pharmaceuticals Incorporated, priority 1995, dated 1998).

How the values were obtained:
[1] = tested on: L1210 mouse leukemia cells transformed with the pHaMDR1/A retrovirus carrying a MDR1 cDNA (L1210VMDRC.06); assay: MDR sensitization assay: reversal of MDR to doxorubicin in L1210VMDRC.06 cells (MTT or XTT viability, 3 days) (Table 1); details: for MDR Ratio 1.0 μM Cpd. / MDR Ratio (2.5 μM): mouse, l1210vmdrc.06 cells, 72 h
Experimental: To assay the ability of the compounds according to this invention to increase the antiproliferative activity of a drug, cell lines which are known to be resistant to a particular drug may be used. These cell lines include, but are not limited to, the L1210, P388D, CHO and MCF7 cell lines. Alternatively, resistant cell lines may be developed. The cell line is exposed to the drug to which it is resistant, or to the test compound; cell viability is then measured and compared to the viability of cells which are exposed to the drug in the presence of the test compound.
We have carried out assays using L1210 mouse leukemia cells transformed with the pHaMDR1/A retrovirus carrying a MDR1 cDNA, as described by Pastan et al., Proc. Natl. Acad. Sci., Vol. 85, 4486-4490 (1988). The resistant line, labelled L1210VMDRC.06, was obtained from Dr. M. M. Gottesman of the National Cancer Institute.
Multi-drug resistance assays were conducted by plating cells (2×10^3, 1×10^4, or 5×10^4 cells/well) in 96 well microtiter plates and exposing them to a concentration range of doxorubicin (50 nM-10 μM) in the presence or absence of multi-drug resistance modifier compounds ("MDR inhibitors") of this invention (1, 2.5 or 10 μM) as described in Ford et al., Cancer Res., Vol. 50, 1748-1756. (1990). After culture for 3 days, the viability of cells was quantitated using MTT (Mossman) or XTT dyes to assess mitochondrial function. All determinations were made in replicates of 4 or 8. Also see, Mossman T., J. Immunol. Methods, Vol. 65, 55-63 (1983).
Results were determined by comparison of the IC50 for doxorubicin alone to the IC50 for doxorubicin+MDR inhibitor. An MDR ratio was calculated (IC50 Dox/IC50 Dox+Inhibitor) and the integer value used for comparison of compound potencies.

HL60/ADR cells = assay: Inhibition of MRP-mediated MDR: reversal of MDR to doxorubicin in HL60/ADR cells (XTT viability, 3 days) (Table 2); assay type: cell-based; details: Homo sapiens, 72 h, read-out: IC50 Dox alone
Experimental: We plated HL60/ADR cells in 96 well microtiter plates (4×10^4 cells/well). The cells were then exposed to various concentrations of doxorubicin (50 nM to 10 μM) in the presence or absence of various compounds of this invention at various concentrations (0.5-10 μM). After culturing the cells for 3 days, their viability was quantitated using the XTT dye method to assess mitochondrial function. Results were expressed as a ratio of the IC50 for doxorubicin alone to the IC50 for doxorubicin plus MDR inhibitor. IC50 values are expressed in nM. In all assays the intrinsic antiproliferative or cytotoxicity activity of the MDR inhibitors was also determined for HL60/ADR cells.

## COc1cc(N(C)C(=O)N2CCCC[C@H]2C(=O)OC(CCCc2cccnc2)CCCc2cccnc2)cc(OC)c1OC [Compound 5, (S)-1-((3,4,5-Trimethoxyphenyl)-methyl-carbamoyl)-piperidine-2-carboxylic acid 4-pyridin-3-yl-1-(3-pyridin-3-yl-propyl)-butyl ester]
[1]
  MDR Ratio 1.0 μM Cpd.: 2.8
  MDR Ratio (2.5 μM): 7.8

## CN(C(=O)N1CCCC[C@H]1C(=O)OC(CCCc1cccnc1)CCCc1cccnc1)c1cccc(C(F)(F)F)c1 [Compound 6, (S)-1-((3-Trifluoromethylphenyl)-methyl-carbamoyl)-piperidine-2-carboxylic acid 4-pyridin-3-yl-1-(3-pyridin-3-yl-propyl)-butyl ester]
[1]
  MDR Ratio (2.5 μM): 14.6

## CN(C(=O)N1CCCC[C@H]1C(=O)OC(CCCc1cccnc1)CCCc1cccnc1)c1ccc(C(C)(C)C)cc1 [Compound 7, (S)-1-((4-Tert-butylphenyl)-methyl-carbamoyl)-piperidine-2-carboxylic acid 4-pyridin-3-yl-1-(3-pyridin-3-yl-propyl)-butyl ester]
[1]
  MDR Ratio 1.0 μM Cpd.: 4.0
  MDR Ratio (2.5 μM): 15.4

## CC(C)c1ccc(N(C)C(=O)N2CCCC[C@H]2C(=O)OC(CCCc2cccnc2)CCCc2cccnc2)cc1 [Compound 8, (S)-1-((4-Isopropylphenyl)-methyl-carbamoyl)-piperidine-2-carboxylic acid 4-pyridin-3-yl-1-(3-pyridin-3-yl-propyl)-butyl ester]
[1]
  MDR Ratio 1.0 μM Cpd.: 1.9
  MDR Ratio (2.5 μM): 3.6

## O=C(OC(CCCc1cccnc1)CCCc1cccnc1)[C@@H]1CCCCN1C(=O)N1CCCCC1 [Compound 9, (S)-1-(Piperidine-1-carbonyl)-piperidine-2-carboxylic acid 4-pyridin-3-yl-1-(3-pyridin-3-yl-propyl)-butyl ester]
[1]
  MDR Ratio 1.0 μM Cpd.: 1.3
  MDR Ratio (2.5 μM): 6.9

## COc1cc(OC(=O)N2CCCC[C@H]2C(=O)OC(CCCc2cccnc2)CCCc2cccnc2)cc(OC)c1OC [Compound 11, (S)-Piperidine-1,2-dicarboxylic acid 1-(3,4,5-trimethoxyphenyl) ester 2-(4-pyridin-3-yl-1-(3-pyridin-3-yl-propyl)-butyl) ester]
[1]
  MDR Ratio 1.0 μM Cpd.: 1.2
  MDR Ratio (2.5 μM): 2.3

## COc1cc(N(C)C(=O)N2CCCC[C@H]2C(=O)OC(CCc2ccccc2)CCc2ccccc2)cc(OC)c1OC [Compound 13, (S)-1-((3,4,5-Trimethoxyphenyl)-methyl-carbamoyl)-piperidine-2-carboxylic acid 1-(2-phenyl-ethyl)-3-phenyl-propyl ester]
[1]
  MDR Ratio 1.0 μM Cpd.: 3.0
  MDR Ratio (2.5 μM): 11.5

## CN(C(=O)N1CCCCC1C(=O)OC(CCc1ccccc1)CCc1ccccc1)c1ccc(S(=O)(=O)O)cc1 (stereo not drawn) [Compound 14, 4-(Methyl-(2-(1-phenethyl-3-phenyl-propoxycarbonyl)-piperidine-1-carbonyl)-amino)-benzenesulfonic acid]
[1]
  MDR Ratio 1.0 μM Cpd.: 1.9
  MDR Ratio (2.5 μM): 3.6

## CN(C(=O)N1CCCC[C@H]1C(=O)OC(COCc1ccccc1)COCc1ccccc1)c1ccc(N2CCOCC2)cc1 [Compound 16, (S)-1-(Methyl-(4-morpholin-1-yl-phenyl)-carbamoyl)-piperidine-2-carboxylic acid 2-benzyloxy-1-(benzyloxy-methyl)-ethyl ester]
[1]
  MDR Ratio (2.5 μM): 10.7

## CN(C(=O)N1CCCC[C@H]1C(=O)OC(COCc1ccccc1)COCc1ccccc1)c1ccc(N2CCCCC2)cc1 [Compound 17, (S)-1-(Methyl-(4-piperidin-1-yl-phenyl)-carbamoyl)-piperidine-2-carboxylic acid 2-benzyloxy-1-(benzyloxy-methyl)-ethyl ester]
[1]
  MDR Ratio (2.5 μM): 10.7

## O=C(OC(COCc1ccccc1)COCc1ccccc1)[C@@H]1CCCCN1C(=O)Oc1cccc2ncccc12 [Compound 18, (S)-Piperidine-1,2-dicarboxylic acid 2-(2-benzyloxy-1-(benzyloxymethyl)-ethyl)ester 1-quinolin-5-yl ester]
[1]
  MDR Ratio (2.5 μM): 13.6

## COc1cccc2c1C(=O)c1c(O)c3c(c(O)c1C2=O)C[C@@](O)(C(=O)CO)C[C@@H]3O[C@H]1C[C@H](N)[C@H](O)[C@H](C)O1 [Dox, doxorubicin, reference compound]
HL60/ADR cells
  IC50: 5 µM

## (S)-1-((3,4,5-Trimethoxyphenyl)-methyl-carbamoyl)-piperidine-2-carboxylic acid 4-pyridin-1-yl-1-(3-pyridin-1-yl-propyl)-butyl ester [Compound 10]
[1]; IC50 of doxorubicin in presence of 1 μM compound, L1210VMDRC.06 cells, 3 days
  IC50 Dox + 1 μM Cpd.: 400
[1]; IC50 of doxorubicin in presence of 2.5 μM compound, L1210VMDRC.06 cells, 3 days
  IC50 Dox + 2.5 μM Cpd.: 85
